Patent US11667602B2, “Compounds and their use” (AstraZeneca AB, priority 2020, dated 2023)
Where two headings read alike, the source gives them in different places.

Molecular target: T1, human RXFP1 (Homo sapiens, UniProt Q9HBX9)
T1 sequence (Q9HBX9 1-757): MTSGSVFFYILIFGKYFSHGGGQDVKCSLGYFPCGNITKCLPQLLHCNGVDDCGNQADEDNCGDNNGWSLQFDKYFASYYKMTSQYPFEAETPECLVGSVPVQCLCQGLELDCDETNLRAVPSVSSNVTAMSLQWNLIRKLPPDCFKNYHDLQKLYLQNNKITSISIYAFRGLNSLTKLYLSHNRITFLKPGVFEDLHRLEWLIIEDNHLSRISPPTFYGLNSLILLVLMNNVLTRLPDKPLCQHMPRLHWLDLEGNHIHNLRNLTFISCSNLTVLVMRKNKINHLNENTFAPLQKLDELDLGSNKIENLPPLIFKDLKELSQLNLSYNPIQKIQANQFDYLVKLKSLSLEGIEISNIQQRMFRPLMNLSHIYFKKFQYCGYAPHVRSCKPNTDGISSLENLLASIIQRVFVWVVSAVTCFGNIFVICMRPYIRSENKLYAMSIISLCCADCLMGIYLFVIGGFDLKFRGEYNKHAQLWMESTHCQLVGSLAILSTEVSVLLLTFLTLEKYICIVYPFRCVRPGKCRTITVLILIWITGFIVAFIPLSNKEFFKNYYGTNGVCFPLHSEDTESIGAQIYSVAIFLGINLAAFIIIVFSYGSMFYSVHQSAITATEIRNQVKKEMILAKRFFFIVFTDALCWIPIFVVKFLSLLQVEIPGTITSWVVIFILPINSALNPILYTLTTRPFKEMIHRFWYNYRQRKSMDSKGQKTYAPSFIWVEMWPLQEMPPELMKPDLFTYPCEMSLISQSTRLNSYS
Assay: RXFP1 Hu cAMP (Test A)
Assay type: cell-based
Set-up: expressed in transfected cells; host or cells: Jump-In T-REx CHO-K1 cells (ThermoFisher), induced with 10 ng/ml doxycycline for 24 h
From the text: To screen for modulators of hRXFP1, an assay identifying compounds that stimulate cAMP production via the Gs-coupled hRXFP1 receptor was used. cAMP HiRange HTRF kit (available from CisBio Bioassays, France; catalogue number 62AM6PEJ) was employed in large according to manufacturer's recommendations for detection of cAMP. The HTRF method is a competitive immunoassay between native cAMP produced by cells and cAMP labeled with the dye d2. The tracer binding is visualized with a cryptate labeled antibody for cAMP and the signal is thus inversely proportional to the amount of produced cAMP.
Cells: Jump-In™ T-REx™ CHO-K1 Cells (ThermoFisher) stably transfected with human RXFP1 was employed. Cells were induced to express human RXFP1 by treatment with 10 ng/ml doxycycline for 24 h. Cells were then cryopreserved for long term storage.
HTRF detection reagents: cAMP-d2 and anti-cAMP cryptate reconstituted according to CisBio instructions were diluted 1:40 in lysis buffer provided with the HTRF-kit.
3. 4 μL assay buffer with 1 mM IBMX (0.5 mM final concentration) to block phosphodiesterases was added with Multidrop Combi (ThermoFisher).
6. 4 μL cAMP-d2 in lysis buffer was added with Multidrop Combi.
7. 4 μL anti-cAMP cryptate in lysis buffer was added with Multidrop Combi
8. 2 h incubation at room temperature
Using a cAMP standard curve, HTRF data was converted to amount cAMP produced in the samples which was subsequentially used for calculation of concentration responses. Concentration response data were fitted with a four parameter logistic fit, the Hill equation. The results from the assay are reported in Table 36 as EC50 (μM) and Sinf (%).
Where the assay was run multiple times for the same compound, the geometric mean is reported.
Sinf is the fitted activity level, efficacy, at infinite concentration of test compound. To facilitate comparison of efficacy data, efficacy was normalized to % effect of the response stimulated by a saturating concentration of relaxin (1 nM). Where the assay was run multiple times for the same compound, the arithmetic mean is reported.

[1] = RXFP1 Hu cAMP, read-out: Test A EC50

| Test A Sinf (RXFP1 Hu cAMP) | EC50 [1] | Compound | EC50 (Test A EC50, RXFP1 Hu cAMP) |
| --- | --- | --- | --- |
| 118% | 0.52 µM | COc1cc(F)c(O[C@H]2CC[C@@](C)(C(=O)O)CC2)cc1C(=O)N[C@@H]1[C@H]2CC[C@H](C2)[C@@H]1C(=O)NCC1(OC)CCC1 [Example 593, (1S,4s)-4-(2-Fluoro-4-methoxy-5-(((1S,2R,3S,4R)-3-(((1-methoxycyclobutyl)methyl)carbamoyl)bicyclo[2.2.1]heptan-2-yl)carbamoyl)phenoxy)-1-methylcyclohexane-1-carboxylic acid] |  |
| 110% | 0.0032 µM | COc1cc(F)c(O[C@H]2CC[C@@](C)(C(=O)O)CC2)cc1C(=O)N[C@@H]1[C@@H]2CC[C@@H](C2)[C@@H]1C(=O)Nc1cccc(S(=O)(=O)C(F)(F)F)c1 (racemic) [Example 367] |  |
| 125% | 0.0011 µM | COc1cc(F)c(O[C@H]2CC[C@@](C)(C(=O)O)CC2)cc1C(=O)N[C@@H]1[C@@H]2CC[C@@H](C2)[C@@H]1C(=O)Nc1ccc(F)c(S(F)(F)(F)(F)F)c1 (racemic) [Example 371] |  |
| 104% | 0.008 µM | COc1cc(F)c(O[C@H]2CC[C@@](C)(C(=O)O)CC2)cc1C(=O)NC1CCCCCC1C(=O)Nc1cccc(S(=O)(=O)C(F)(F)F)c1 (single isomer, unassigned) [Example 516, (1R,4s)-4-(2-Fluoro-4-methoxy-5-(((1S*,2R*)-2-((3-((trifluoromethyl)sulfonyl)phenyl)carbamoyl)cycloheptyl)carbamoyl)phenoxy)-1-methylcyclohexane-1-carboxylic acid] |  |
| 91% | 0.26 µM | COc1cc(F)c(O[C@H]2CC[C@@](C)(C(=O)O)CC2)cc1C(=O)N[C@@H]1[C@H]2CC[C@H](C2)[C@@H]1C(=O)NC1CCCC1 [Example 599] |  |
| 100% | 1.2 µM | COc1cc(C#N)c(O[C@H]2CC[C@@](C)(C(=O)O)CC2)cc1C(=O)N[C@@H]1[C@H]2CC[C@H](C2)[C@@H]1C(=O)NCC(C)(C)CO [Example 138] |  |
| 90% | 0.42 µM | COc1cc(F)c(O[C@H]2CC[C@@](C)(C(=O)O)CC2)cc1C(=O)N[C@@H]1[C@H]2CC[C@H](C2)[C@@H]1C(=O)N[C@H]1CCN(S(=O)(=O)C(F)(F)F)C1 [Example 606] |  |
| 102% | 0.086 µM | COc1cc(F)c(O[C@H]2CC[C@@](O)(C(=O)O)CC2)cc1C(=O)N[C@@H]1[C@@H]2CC[C@@H](C2)[C@@H]1C(=O)Nc1cccc(S(=O)(=O)C(F)(F)F)c1 (racemic) [Example 422, (1R,4r)-4-(2-Fluoro-4-methoxy-5-(((1RS,2RS,3SR,4SR)-3-((3-((trifluoromethyl)sulfonyl)phenyl)carbamoyl)bicyclo[2.2.1]heptan-2-yl)carbamoyl)phenoxy)-1-hydroxycyclohexane-1-carboxylic acid] |  |
| 98% | 0.9 µM | COc1cc(F)c(OC2CCCC(C(=O)O)C2)cc1C(=O)N[C@@H]1[C@H]2CC[C@H](C2)[C@@H]1C(=O)Nc1cccc(S(=O)(=O)C(F)(F)F)c1 (single isomer, unassigned) [Example 446] |  |
|  | > 40 µM | COc1cc(F)c(O[C@H]2CC[C@@](C)(C(=O)O)CC2)cc1C(=O)NC1C2C=CC(CC2)C1C(=O)NCC1(C)CCC1 (single isomer, unassigned) [Example 544, (1R,4s)-4-(2-Fluoro-4-methoxy-5-(((1R*,2S*,3R*,4S*)-3-(((1-methylcyclobutyl)methyl)carbamoyl)bicyclo[2.2.2]oct-5-en-2-yl)carbamoyl)phenoxy)-1-methylcyclohexane-1-carboxylic acid] |  |

Second part, the compound before the results:

| Compound | Test A Sinf (RXFP1 Hu cAMP) | EC50 [1] | EC50 (Test A EC50, RXFP1 Hu cAMP) |
| --- | --- | --- | --- |
| COc1cc(C#N)c(O[C@H]2CC[C@@](C)(C(=O)O)CC2)cc1C(=O)Nc1cc(Cl)ccc1C(=O)NCC1CCCCCC1 [Example 157, (1s,4s)-4-(5-((5-Chloro-2-((cycloheptylmethyl)carbamoyl)phenyl)carbamoyl)-2-cyano-4-methoxyphenoxy)-1-methylcyclohexane-1-carboxylic acid] | 118% | 0.088 µM |  |
| COc1cc(F)c(-c2ccc(C(=O)O)cc2)cc1C(=O)N[C@@H]1CCC[C@@H]1C(=O)Nc1cccc(S(=O)(=O)C(F)(F)F)c1 (racemic) [Example 299] | 81% |  |  |
| (1R,4s)-4-(2-Fluoro-5-(((1S*,2S*,5S*)-2-hydroxy-5-((3-((trifluoromethyl)sulfonyl)phenyl)carbamoyl)cyclopentyl)carbamoyl)-4-methoxyphenoxy)-1-methylcyclohexane-1-carboxylic acid [Example 529] | 96% |  |  |
| COc1cc(F)c(-c2ccc(C(=O)O)cc2)cc1C(=O)N[C@H]1[C@@H](C(=O)Nc2ccc(F)c(C#N)c2)[C@@H]2C=C[C@H]1C2 (racemic) [Example 309] | 80% | 4 µM |  |
| COc1cc(F)c(OCc2ccc(C(C)(C)C(=O)O)cc2)cc1C(=O)N[C@H]1[C@@H](C(=O)Nc2cccc(S(=O)(=O)C(F)(F)F)c2)[C@@H]2C=C[C@H]1C2 (racemic) [Example 452] | 104% | 0.98 µM |  |
| COc1cc(F)c(-c2ccc(C(=O)O)cc2)cc1C(=O)N[C@H]1[C@@H](C(=O)Nc2cc(F)cc(S(F)(F)(F)(F)F)c2)[C@@H]2C=C[C@H]1C2 (racemic) [Example 298] | 82% | 0.91 µM |  |
| COc1cc(F)c(O[C@H]2CC[C@@](C)(C(=O)O)CC2)cc1C(=O)N[C@@H]1COC[C@@H]1C(=O)Nc1cccc(S(=O)(=O)C(F)(F)F)c1 (racemic) [Example 342] | 132% | 0.55 µM |  |
| COc1cc(C#N)c(O[C@H]2CC[C@@](C)(C(=O)O)CC2)cc1C(=O)Nc1cc(Cl)ccc1C(=O)NC[C@H]1C[C@@H](C)C1 [Example 159] | 125% | 0.078 µM |  |
| COc1cc(C#N)c(O[C@H]2CC[C@@](C)(C(=O)O)CC2)cc1C(=O)N[C@H]1[C@@H](C(=O)NCC2(C)CCC2)[C@H]2CC[C@@H]1O2 (racemic) [Example 333] | 98% |  |  |
| COc1cc(F)c(-c2ccnc(C(=O)O)c2)cc1C(=O)N[C@H]1[C@@H](C(=O)Nc2cccc(S(=O)(=O)C(F)(F)F)c2)[C@@H]2C=C[C@H]1C2 (racemic) [Example 272, rac-4-(2-Fluoro-4-methoxy-5-(((1R,2R,3S,4S)-3-((3-((trifluoromethyl)sulfonyl)phenyl)carbamoyl)bicyclo[2.2.1]hept-5-en-2-yl)carbamoyl)phenyl)picolinic acid] | 107% | 4.9 µM |  |
| (1R,4s)-4-(2-Fluoro-4-methoxy-5-(((1S*,2R*)-2-(neopentylcarbamoyl)cyclobutyl)carbamoyl)phenoxy)-1-methylcyclohexane-1-carboxylic acid [Example 569] | 97% |  |  |
| COc1cc(F)c(-c2ccc(C(=O)O)c(F)c2)cc1C(=O)N[C@H]1[C@@H](C(=O)Nc2cccc(S(=O)(=O)C(F)(F)F)c2)[C@@H]2C=C[C@H]1C2 (racemic) [Example 232] | 108% |  |  |
| COc1cc(F)c(O[C@H]2CC[C@@H](C(=O)O)CC2)cc1C(=O)N[C@H]1[C@@H](C(=O)Nc2cccc(S(=O)(=O)C(F)(F)F)c2)[C@@H]2C=C[C@H]1C2 (racemic) [Example 495] | 98% | 0.12 µM |  |
| COCc1cc(OC)c(C(=O)N[C@@H]2[C@H]3CC[C@H](C3)[C@@H]2C(=O)NCC2(C)CCC2)cc1O[C@H]1CC[C@@](C)(C(=O)O)CC1 [Example 402] | 131% |  | 0.62 µM |
